For assay [1], the target named is T1, dopamine D1 receptor (Homo sapiens, UniProt P21728).
T1 construct: Dopamine D1 receptor gene cloned in pcDNA 3.1 was kindly provided by Dr. Olivier Civelli; expressed in transfected cells
The assay can be described thus: CRE-luciferase reporter gene assay in HEK-D1/CRE/Luc2P cells. It is filed as cell-based. The note with it: for Emax / antagonist profile in luciferase reporter gene assay: dopamine 2 nM; for Emax: read-out: % Maximal Inhibition Mean ± SD (N = 3), Luciferase; for inhibition at 12.5 µM: single screening concentration 12.5 μM, read-out: inhibition in single-concentration screening (activity threshold); for antagonist profile in luciferase reporter gene assay: concentration-response, Figure 4A / Figure S3. The source says: The cDNA plasmids of dopamine D1 receptor and CRE/Luci were stably co-transfected into human embryonic kidney-293 cells (HEK293) cells (HEK-D1/CRE/Luc2P). Activation of D1 receptors leads to the elevation of cAMP and activates the cAMP response element (CRE) and therefore induces the expression of the reporter gene luciferase. We used the natural ligand dopamine as a positive control to select the cell colony and to optimize and characterize the HEK-D1/CRE/Luc2P cell system.
(§1) The pGL4.29 (CRE/luc2P//Hygro) luciferase reporter gene was stably co-transfected with dopamine D1 receptor plasmid or was stably transfected individually in HEK293 cells. Transfection was carried out with lipofectamine 2000 reagent using the protocol provided by Promega. Stable cells expressing CRE-Luciferase and D1 receptor were selected in the presence of 700 μg/mL G418 and 200 μg/mL hygromycin for 10–14 days. Stable cells expressing CRE-Luciferase were singly selected in the presence of 200 μg/mL hygromycin. The obtained stable cells were then cultured with 350 μg/mL G418 and 100 μg/mL hygromycin or only 100 μg/mL hygromycin to maintain the selective growth.
(§2) The examination of CRE-luciferase activity was performed by a modification of methods as described previously. HEK293 stable cells were seeded in 96-well plates at a density of 1.5 × 10^4 cells per well. After cells became adherent, they were […] in serum-starved DMEM for different hours to explore the most suitable starving time. Cells were then pretreated with compounds for 1 h prior to dopamine stimulation. Afterwards, the cells were lysed with luciferase lysis buffer and the luminescence of the firefly luciferase was measured with the FlexStation 3 (Molecular Devices, Sunnyvale, CA, USA).
(§3) All statistical calculations were performed using GraphPad Prism 5.0 (GraphPad, Avenida, CA, USA). Data from each dose-response curve were normalized to the maximal stimulation by dopamine. At least three independent experiments were performed.

In assay [2] the target is T2, human D1 receptors (Homo sapiens, UniProt P21728).
T2 construct: The cDNA plasmids of D1-like receptors were stably transfected into HEK 293T cells; expressed in transfected cells
The assay can be described thus: Fluorescent Ca2+ mobilization assay (FLIPR) in HEK 293T cells expressing D1 receptors and Gα15. The note with it: for antagonist profile in FLIPR assay: concentration-response, Figure 4B; for antagonist profile in FLIPR assay / % Maximal Inhibition Mean ± SD (N = 3), FLIPR: dopamine 500 nM. Type of assay: cell-based. The procedure: We used a fluorescent Ca^2+ mobilization assay to further evaluate the hit compounds obtained from the luciferase reporter gene assay screens. […] With the coexpression of Gα15 protein, D1 receptors can be redirected to mediate intracellular calcium mobilization upon stimulation. Calcium levels were monitored using fluorometric imaging plate reader (FLIPR). The assay can also distinguish potential antagonists from agonists.
Fluorescent Ca^2+ mobilization assay was performed using Flu-4 AM reagent as reported earlier.
as §3

Assay [3] relates to HEK/CRE/Luc2P cells. The assay can be described thus: Specificity control: forskolin-stimulated CRE-luciferase response in HEK/CRE/Luc2P negative control cells. It is filed as cell-based, human. The note with it: for decrease of forskolin-stimulated response (cAMP levels): forskolin 1 μM, high doses of compound, Figure S2. The procedure:
HEK293 cells stably expressing cDNA plasmid of CRE/Luciferase (HEK/CRE/Luc2P) were established as the negative control cells to test the specificity to the D1 receptor for the compounds.
as §1, §2

[4] abbreviates: inhibition of dopamine (2 nM) response, HEK-D1/CRE/Luc2P cells, IC50 based on the degree of maximal inhibition, read-out: IC50 (μM) with 95% Confidence Intervals, Luciferase.
[5] abbreviates: inhibition of dopamine (500 nM) Ca2+ mobilization, HEK-D1/Gα15 cells, IC50 based on the degree of maximal inhibition, read-out: IC50 (μM) with 95% Confidence Intervals, FLIPR.

Where two headings read alike, the source gives them in different places. A value given as a limit tells only on which side of the number the result lay.

T2 sequence (P21728 whole entry): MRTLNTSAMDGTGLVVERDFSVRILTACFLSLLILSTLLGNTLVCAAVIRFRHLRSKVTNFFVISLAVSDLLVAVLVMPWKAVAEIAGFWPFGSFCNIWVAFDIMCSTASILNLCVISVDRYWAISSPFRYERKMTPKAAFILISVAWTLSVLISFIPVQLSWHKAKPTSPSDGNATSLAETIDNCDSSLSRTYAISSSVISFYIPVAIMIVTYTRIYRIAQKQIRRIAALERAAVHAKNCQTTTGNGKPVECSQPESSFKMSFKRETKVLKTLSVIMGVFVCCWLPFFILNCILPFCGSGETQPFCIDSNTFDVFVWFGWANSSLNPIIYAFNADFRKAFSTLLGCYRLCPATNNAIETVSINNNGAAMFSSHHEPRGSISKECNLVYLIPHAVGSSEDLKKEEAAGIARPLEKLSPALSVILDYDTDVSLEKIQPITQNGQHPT
T1 sequence (P21728 whole entry): as above

On to `COc1cc2c(cc1OC)[C@H]1[C@@H](C)c3ccc(OC)c(OC)c3CN1CC2` [Compound 4, Corydaline], for which the Emax in assay [1] (HEK-D1/CRE/Luc2P cells) was 83.5 ± 1.45%. The IC50 in assay [1] (setting [4]) worked out at 2.46 µM; in assay [2] (setting [5]), 3.36 µM. In addition, the inhibition at 12.5 µM in assay [1] was no less than 50%. In addition, the “antagonist profile in FLIPR assay” value in assay [2] is reported as “concentration-dependent antagonist responses”. Moreover, the “% Maximal Inhibition Mean ± SD (N = 3), FLIPR” value (shortened to “% Maximal Inhibition Mean ± SD”) in assay [2] (HEK-D1/Gα15 cells) was 90.32 ± 1.9817%.

For `COc1cc2c(cc1O)CC[n+]1cc3c(OC)c(OC)ccc3c(C)c1-2` [Compound 6, Dehydrocorybulbine], the Emax in assay [1] (HEK-D1/CRE/Luc2P cells) stood at 97.52 ± 0.626%. Besides, the IC50 in assay [1] (setting [4]) is 0.621 µM; in assay [2] (setting [5]) it was 0.612 µM. The inhibition at 12.5 µM in assay [1] was no less than 50%. In assay [2], the “antagonist profile in FLIPR assay” value is “concentration-dependent antagonist responses”. Also, in assay [2] (HEK-D1/Gα15 cells), the “% Maximal Inhibition Mean ± SD” value came out at 94.38 ± 0.1939%.

Take `COc1cc2c(cc1OC)-c1cc3ccc(OC)c(OC)c3c[n+]1CC2` [Compound 8, Palmatine]: in assay [1], the IC50 came to 7.08 µM and the inhibition at 12.5 µM is no less than 50%. Besides, in assay [1] (HEK-D1/CRE/Luc2P cells), the Emax stood at 93.86 ± 0.437%. In assay [2], the “antagonist profile in FLIPR assay” value is reported as “weak inhibitory effects”. For the same compound, in assay [3], the “decrease of forskolin-stimulated response (cAMP levels)” value came to 25%.

In the case of `COc1cc2c(cc1OC)-c1c(C)c3ccc(O)c(OC)c3c[n+]1CC2` [Compound 5, 13-methyldehydrocorydalmine], in assay [1] (HEK-D1/CRE/Luc2P cells), the Emax was 86 ± 1.76%. In addition, the IC50 in assay [1] (setting [4]) worked out at 10.3 µM; in assay [2] (setting [5]), 3.08 µM. Moreover, the inhibition at 12.5 µM in assay [1] was no less than 50%. Moreover, the “antagonist profile in FLIPR assay” value in assay [2] is “concentration-dependent antagonist responses”. Further, the “% Maximal Inhibition Mean ± SD” value in assay [2] (HEK-D1/Gα15 cells) was 77.04 ± 6.6410%. For the same compound, the “decrease of forskolin-stimulated response (cAMP levels)” value in assay [3] amounted to 25%.

On to `COc1cc2c(cc1O)-c1cc3ccc(OC)c(OC)c3c[n+]1CC2` [Compound 9, Columbamine], for which, in assay [1], half-maximal inhibition (IC50) was put at 1.21 µM and the inhibition at 12.5 µM is no less than 50%. For the same compound, the Emax in assay [1] (HEK-D1/CRE/Luc2P cells) was 97.5 ± 0.218%. For the same compound, in assay [2], the IC50 was 3.4 µM and the “antagonist profile in FLIPR assay” value is on record as “concentration-dependent antagonist responses”. Also, the “% Maximal Inhibition Mean ± SD” value in assay [2] (HEK-D1/Gα15 cells) came out at 86.43 ± 0.7188%.

Consider `C=C[C@@]1(C)CC(=O)[C@]2(O)[C@@]3(C)[C@@H](O)CCC(C)(C)[C@@H]3[C@H](O)[C@H](OC(C)=O)[C@@]2(C)O1` [Forskolin, reference compound], for which the EC50 in assay [3] (Homo sapiens, Figure S1, read-out: EC50 for increasing intracellular cAMP (CRE-luciferase)) is 1.2 µM.

With `COc1cc2c(cc1OC)-c1c(C)c3ccc(OC)c(OC)c3c[n+]1CC2` [Compound 7, Dehydrocorydaline], in assay [1] (HEK-D1/CRE/Luc2P cells), the Emax is 98.23 ± 0.33%. Further, the IC50 stood at 1.29 µM in assay [1] (setting [4]) and 1.53 µM in assay [2] (setting [5]). In assay [1], the inhibition at 12.5 µM was no less than 50%. The “antagonist profile in FLIPR assay” value in assay [2] is given as “concentration-dependent antagonist responses”. Further, in assay [2] (HEK-D1/Gα15 cells), the “% Maximal Inhibition Mean ± SD” value is given as 90.61 ± 0.6541%.

Consider `COc1cc2c(cc1O)C1Cc3ccc(OC)c(OC)c3C[N+]1(C)CC2` (stereo not shown) [Compound 10, N-methyltetrahydrocolumbamine], for which, in assay [1], the “antagonist profile in luciferase reporter gene assay” value was “partial antagonist effects” and the inhibition at 12.5 µM is no less than 50%. Moreover, the Emax in assay [1] (HEK-D1/CRE/Luc2P cells) came to 78.2 ± 1.78%. For the same compound, in assay [1] (setting [4]), the IC50 turned out to be 13.4 µM. Also, the “antagonist profile in FLIPR assay” value in assay [2] is reported as “weak inhibitory effects”.

With `COc1cc2c(cc1OC)[C@@H]1Cc3ccc(OC)c(OC)c3CN1CC2` [Compound 2, Tetrahydropalmatine], in assay [1], the “antagonist profile in luciferase reporter gene assay” value was “partial antagonist effects” and the inhibition at 12.5 µM is no less than 50%. Also, in assay [1] (HEK-D1/CRE/Luc2P cells), the Emax was 72.5 ± 4%. In addition, the IC50 in assay [1] (setting [4]) is 0.644 µM. In addition, the “antagonist profile in FLIPR assay” value in assay [2] is listed as “concentration-dependent antagonist responses”. Further, the “% Maximal Inhibition Mean ± SD” value in assay [2] (HEK-D1/Gα15 cells) was 92.64 ± 1.7945%. In addition, the 50% inhibitory concentration (IC50) in assay [2] (setting [5]) was 2.24 µM.

For the origin of these results see paper PMC6222624, “Identification of Alkaloids from Corydalis yanhusuo W. T. Wang as Dopamine D1 Receptor Antagonists by Using CRE-Luciferase Reporter Gene Assay” (Molecules : A Journal of Synthetic Chemistry and Natural …, 2018).
